Experimental data: patent US8735151B2, “Spontaneously contracting fish cell aggregates, use thereof and method for the production thereof” (Fraunhofer-Gesellschaft zur Foerderung der Angewandten …, priority 2009, dated 2014)

Experiments:
[1] = system: spontaneously contracting cell aggregates (certain channels in the heart: potassium and calcium channels); assay: Drug tests on the cell aggregates (electrophysiology, intracellular derivation with a sharp electrode); format: cell-based, Rainbow trouts (Oncorhynchus mykiss, Walbaum); details: for reaction of the aggregates on drugs which influence certain channels in the heart: FIG. 10; for recovery of the aggregates after the drug testing: medium change
Procedure: FIG. 10 Effect of cardiac drugs on the cell aggregates; A: isoproterenol (calcium channel agonist); B: rilmakalim ([…])
The electrophysiology is important for the use of the cell aggregates as a test system in pharmacology. Measurement of the electric activity was performed by means of extracellular measurement via MEA (multi-electrode array) and intracellular measurement via a sharp electrode.
The properties of action potentials and the examination on certain channels (potassium and calcium channels) were carried out with a sharp electrode.
The reaction of the aggregates on drugs which influence certain channels in the heart is of importance for the functionality as a test model. […] Examinations were carried out with isoproterenol (calcium channel agonist) (FIG. 10A) and rilmakalim ([…]).

[2] = system: spontaneously contracting cell aggregate; assay: Reaction of cell aggregates on the addition of potassium (light microscope, video recordings); format: cell-based, Rainbow trouts (Oncorhynchus mykiss, Walbaum)
Procedure: The reaction of a cell aggregate which had already contracted for 16 days in culture on potassium could be tested in another experiment. It was shown under a light microscope (Axiovert 40C; Zeiss, Germany) with video recordings that the beating frequency of this aggregate increased from 66 beats per minute to 72 beats per minute over a period of 10 minutes. After these 10 minutes, a 1.75 mM potassium chloride solution was added. […] After removing the medium containing the 1.75 mM KCl solution and replacing it with fresh DMEM/20% FBS, the cell aggregate began to beat again after 2 minutes. However, the beating frequency was at first only 16 beats per minute which recovered to the original frequency within the next three days.

| SMILES | reaction of the aggregates on drugs which influence certain channels in the heart [1] | recovery of the aggregates after the drug testing [1] | contraction speed of the aggregate after adding the KCl solution ([2]; 1.75 mM potassium chloride solution, aggregate 16 days contracting in culture, for 6 seconds after addition, baseline 66-72 beats per minute) | time after addition until contraction stopped ([2]; 1.75 mM potassium chloride solution, no more contractions observed) [s] | beating frequency at first after medium replacement ([2]; after removal of 1.75 mM KCl, recovered to the original frequency within the next three days) [beats per minute] | time until the cell aggregate began to beat again after replacing medium ([2]; after removing medium containing 1.75 mM KCl and replacing with fresh DMEM/20% FBS) [min] |
| --- | --- | --- | --- | --- | --- | --- |
| CC(C)NCC(O)c1ccc(O)c(O)c1 (centres unmarked) [isoproterenol] | in the same manner as the human heart | recover after the drug testing by means of a medium change |  |  |  |  |
| [Cl-].[K+] [potassium chloride] |  |  | triple the speed as before | 10 | 16 | 2 |
| CC1(C)Oc2ccc(S(=O)(=O)c3ccccc3)cc2[C@@H](N2CCCC2=O)[C@@H]1O [rilmakalim] | in the same manner as the human heart | recover after the drug testing by means of a medium change |  |  |  |  |
